Experiment: Storage stability of drug solutions: N-oxide content by ion pair reversed phase HPLC
Type: physicochemical
Settings: solutions stored for 7 days at 40° C.; formulation employing levulinic acid

CC(=O)CCC(=O)O [levulinic acid]
N-oxide content of the formulation: below 0.06%
